Experimental data: patent publication US20100298138A1, “Aminoazoline and Urea Derivatives for Combating Animal Pests” (BASF SE, priority 2007, published 2010)

Tests used:
[1] = system: Cotton Aphid (Aphis gossypii); test: whole plant or invertebrate; assay type: in vivo; conditions: 120 h
Excerpt: • 2. Biological Examples II.1 Cotton Aphid (Aphis gossypii), Mixed Life Stages
The active compounds were formulated in 50:50 acetone: water and 100 ppm Kinetic® surfactant.
Cotton plants at the cotyledon stage (one plant per pot) were infested by placing a heavily infested leaf from the main colony on top of each cotyledon. The aphids were allowed to transfer to the host plant overnight, and the leaf used to transfer the aphids was removed. The cotyledons were dipped in the test solution and allowed to dry. After 5 days, mortality counts were made.

[2] = system: Silverleaf Whitefly (Bemisia argentifolii); test: whole plant or invertebrate; assay type: in vivo; conditions: in Gossypium hirsutum, 72 h, 3 days after treatment, in comparison with untreated controls
Protocol: II.4 Silverleaf Whitefly (Bemisia argentifolii), Adult
The active compounds were formulated in 50:50 acetone:water and 100 ppm Kinetic® surfactant.
Selected cotton plants were grown to the cotyledon state (one plant per pot). The cotyledons were dipped into the test solution to provide complete coverage of the foliage and placed in a well-vented area to dry. Each pot with treated seedling was placed in a plastic cup and 10 to 12 whitefly adults (approximately 3-5 day old) were introduced. The insects were collected using an aspirator and an 0.6 cm, non-toxic Tygon® tubing (R-3603) connected to a barrier pipette tip. The tip, containing the collected insects, was then gently inserted into the soil containing the treated plant, allowing insects to crawl out of the tip to reach the foliage for feeding. The cups were covered with a reusable screened lid (150 micron mesh polyester screen PeCap from Tetko Inc). Test plants were maintained in the holding room at about 25° C. and 20-40% relative humidity for 3 days avoiding direct exposure to the fluorescent light (24 hour photoperiod) to prevent trapping of heat inside the cup. Mortality was assessed 3 days after treatment of the plants.

[3] = system: Brown Planthopper (Nilaparvata lugens); test: whole plant or invertebrate; assay type: in vivo; conditions: in Oryza sativa, assessed 24, 48 and 72 hours after treatment, in comparison with untreated controls
Protocol: II.5 Brown Planthopper (Nilaparvata lugens)
The active compounds were formulated as a 20:80 acetone:water solution. Surfactant (Alkamuls EL 620) was added at the rate of 0.1% (vol/vol).
Potted rice plants of 3-4 weeks of age are sprayed with 10 ml of the test solution using air driven hand atomizer (Devillbis atomizer) at 1.7 bar. The treated plants are allowed to dry for about 1 hour and covered with Mylar cages. The plants are inoculated with 10 adults of the specie (5 male and 5 females) and kept at 25-27° C. and 50-60% humidity for 3 days. Mortality is assed after 24, 48 and 72 hours after treatment. Dead insects are usually found in the water surface. Each treatment is replicated once.

[4] = system: Mediterranean fruitfly (Ceratitis capitata); conditions: eggs treated with 2500 ppm; 6 days
Protocol: II.9 Activity against Mediterranean fruitfly (Ceratitis capitata)
50 to 80 eggs were placed into microtiterplates filled with 0.5% agar-agar and 14% diet in water. The eggs were sprayed with 5 μl of the test solution, the plates were sealed with pierced foils and kept at 27-29° C. and 75-85% humidity under fluorescent light for 6 days. Mortality was assessed on the basis of the agility of the hatched larvae. Tests were replicated 2 times.

In the case of `Clc1cccc2c1CC(NC1=NCCS1)CC2` (centres unmarked) [compound 2a, (8-Chloro-1,2,3,4-tetrahydro-naphthalen-2-yl)-(4,5-dihydro-thiazol-2-yl)-amine], the mortality at 300 ppm [1] is reported as ≥ 50%.

`COc1ccc2c(c1)CC(NC(=S)NCCOC(=O)c1ccccc1)CC2` (centres unmarked) [compound 16, Benzoic acid 2-[3-(7-methoxy-1,2,3,4-tetrahydro-naphthalen-2-yl)-thioureido]-ethyl ester] was tested, and the mortality at 300 ppm [2] was ≥ 50%.

In the case of `COc1ccc2c(c1)CC(NC(=S)NCCOC(C)=O)CC2` (centres unmarked) [compound 17, Acetic acid 2-[3-(7-methoxy-1,2,3,4-tetrahydro-naphthalen-2-yl)-thioureido]-ethyl ester], the mortality at 300 ppm [3] is reported as ≥ 50% and the mortality at 300 ppm [2] is reported as ≥ 50%.

In the case of `COc1ccc2c(c1)CC(NC(=S)NCCO)CC2` (centres unmarked) [compound 18], the mortality [4] is reported as “at least 50%”.
